{"source": "patent EP4740940A1", "about": "“POLLEN PARTICLES AS CARRIERS FOR PULMONARY DELIVERY” (Universidade de Santiago de Compostela, priority 2023, dated 2025)", "key": {"RAW 264.7 cells": {"test_system": "RAW 264.7 cells", "experiment": "MTT cytotoxicity assay", "assay_type": "cell-based", "details": "12.5 µg/mL rifabutin", "method": "To ensure that the microparticles of the invention can be safely used for pharmaceutical uses, MTT was used to investigate their cytotoxicity in Raw264.7 cells. In that sense, the in vitro toxicity of the microparticles of the invention, prepared according to Example 4, was evaluated by means of an MTT colorimetric assay, quantifying the water-insoluble formazan in RAW 264.7 cells after 24 hours of incubation of different particle concentrations. Cells were seeded (10,000 cells/well) 24 h before the experiment in a 96-well plate in a DMEM culture medium (10% FBS and 1% penicillin/streptomycin) at […] 37°C and 5% CO2. The medium was then replaced with the formulations and the cells were incubated for 24 hours. Fresh medium was used as negative control and Triton x100 (1% v/v) was used as positive control. After 24 h, 0.5 mg/mL of MTT dissolved in PBS were added, and the cells were incubated for 4 h at 37°C in darkness. Formazan crystals were dissolved by means of adding HCl 0.04 N in isopropanol and absorbance was measured at 570 nm using a microplate reader (Synergy H1 Hybrid Multi-Mode, BioTek, Winooski, VT, USA). Cell viability (%) was calculated following the equation: Cell viability (%) = (Sample absorbance−Negative control absorbance)/(Positive control absorbance−Negative control absorbance) × 100 [formula]"}, "M. phlei, M. smegmatis": {"test_system": "M. phlei, M. smegmatis", "experiment": "Resazurin-based microdilution growth inhibition assay", "assay_type": "cell-based", "details": "for IC50 / IC90: strain and unit inferred", "method": "The antibacterial activity of the microparticles of the invention with rifabutin (and of the nanosystems) was evaluated in the strain that grows rapidly, M. phlei, and in the strain that grows slowly, M. smegmatis, using a resazurin-based microdilution assay according to the EUCAST guidelines and CSLI guidelines with slight modifications. This is a quick and objective method, and the minimum inhibitory concentration (MIC) is easily detectable because resazurin (blue) turns into resorufin (pink fluorescence) in the presence of viable bacteria. The microparticles of the invention with rifabutin were diluted in a cation-adjusted 2X Mueller-Hinton broth (CaMHB) until reaching a final antibiotic concentration of 32 mg/L. Since the range of susceptibility of Mycobacterium species to rifabutin is ≤0.25-16 mg/L, the highest tested antibiotic concentration was 16 mg/L. A bacterial suspension (in CaMHB) was diluted to a final concentration of 5 × 10^5 CFU/mL. For efficacy determination, the following controls were used: (i) growth control (without treatment), (ii) sterility control (CaMHB), (iii) positive control for inhibitory effect (free rifabutin in solution), and as well as (iv) the microparticles of the invention (without rifabutin), so as to take into account the possible effects of the microparticles of the invention on bacterial growth. […] Fluorescence intensity was measured at 560 and 590 nm of excitation and monitored using the FLUOR®star Omega multimode lector (Biotron Healthcare, India) and the MARS data analysis software, after an incubation period of 30 min at 37°C. The lowest concentration at which color change was observed was considered the minimum inhibitory concentration (MIC) value. Furthermore, IC50 was calculated using an online tool: \"Quest Graph™ IC50 Calculator\". AAT Bioquest, Inc."}, "Mycobacterium smegmatis": {"test_system": "Mycobacterium smegmatis", "experiment": "Biofilm disruption, crystal violet assay", "assay_type": "cell-based", "set-up": "MIC: unit not given beside the values", "method": "In these experiments, the antimicrobial potential of the system was evaluated in Mycobacterium smegmatis used as a model of M. tuberculosis as they have homologous genes. The biofilm formation potential of Mycobacterium smegmatis was evaluated by scanning electron microscopy and the formation thereof was quantified with crystal violet, using 96-well plates made of polyvinyl chloride.\nA crystal violet-based spectrophotometric study was used. To that end, M. smegmatis was inoculated in liquid culture (5 mL of 7H9 medium supplemented with OACC) and left to grow to exponential phase. The culture was diluted 1:100 and 100 µL were pipetted into each well. The controls were the rifabutin-free formulations and the blank was the bacterial culture-free medium. After incubating for two days at 37°C and once the biofilm was formed, the plates were washed with distilled water to remove planktonic cells and 200 µL of each formulation were added in serial dilutions (in the same manner as above). After 24 h, the plate was washed with water again to remove possible planktonic cells, and the biofilm was stained with 125 µL of 0.1% crystal violet solution and incubated for 10 min at room temperature. It was the washed with water and stirred vigorously. Finally, remaining crystal violet was solubilized by adding 200 µL of 95% ethanol and incubating for 15 min at room temperature. The solution was then transferred to a 96-well, flat-bottom plate, and biofilm formation was measured at 570 nm."}, "[1]": {"details": "cited from earlier work"}, "Mycobacterium species": {"test_system": "Mycobacterium species", "details": "cited from earlier work"}, "[2]": {"details": "Mycolicibacterium smegmatis, Biofilm culture, unit inferred"}}}
{"smiles": "CO[C@H]1/C=C/O[C@@]2(C)Oc3c(C)c(O)c4c(c3C2=O)C2=NC3(CCN(CC(C)C)CC3)NC2=C(NC(=O)/C(C)=C\\C=C\\[C@H](C)[C@H](O)[C@@H](C)[C@@H](O)[C@@H](C)[C@H](OC(C)=O)[C@@H]1C)C4=O", "note": "[Rifabutin]", "values": [{"measurement": "viability", "setting": "RAW 264.7 cells", "result": "> 50", "unit": "%"}, {"measurement": "MIC", "setting": "M. phlei, M. smegmatis; 2-day preinoculum, strain and unit not given", "result": 4}, {"measurement": "MIC", "setting": "M. phlei, M. smegmatis; 4-day preinoculum, strain and unit not given", "result": 4}, {"measurement": "IC50", "setting": "M. phlei, M. smegmatis; 48 h, 2-day preinoculum", "result": 2.24, "unit": "µg/mL"}, {"measurement": "IC90", "setting": "M. phlei, M. smegmatis; 48 h, 2-day preinoculum", "result": 20.2, "unit": "µg/mL"}, {"measurement": "IC50", "setting": "M. phlei, M. smegmatis; 96 h, 4-day preinoculum", "result": 2.04, "unit": "µg/mL"}, {"measurement": "IC90", "setting": "M. phlei, M. smegmatis; 96 h, 4-day preinoculum", "result": 18.4, "unit": "µg/mL"}, {"measurement": "IC50", "setting": "M. phlei, M. smegmatis; Preinoculum culture t=0", "result": 0.34, "unit": "µg/mL"}, {"measurement": "IC90", "setting": "M. phlei, M. smegmatis; Preinoculum culture t=0", "result": 3.06, "unit": "µg/mL"}, {"measurement": "MIC", "setting": "M. phlei, M. smegmatis; Preinoculum culture t=0, strain and unit not printed in table (method: mg/L)", "result": 1}, {"measurement": "difference between culture with rifabutin in suspension and without treatment", "setting": "Mycobacterium smegmatis; 2 mg/mL", "result": "hardly any differences"}, {"measurement": "MIC", "setting": "Mycobacterium smegmatis; Biofilm culture, unit not given", "result": 4}, {"measurement": "IC50", "setting": "Mycobacterium smegmatis; [2]", "result": 4.67, "unit": "µg/mL"}, {"measurement": "IC90", "setting": "Mycobacterium smegmatis; [2]", "result": 42, "unit": "µg/mL"}, {"measurement": "oral bioavailability (reaches systemic circulation)", "setting": "[1]", "result": "less than 20%"}, {"measurement": "range of susceptibility of Mycobacterium species to rifabutin", "setting": "Mycobacterium species", "result": "0.25 to 16", "unit": "mg/L"}]}
